{"source": "patent US20080045582A1", "about": "“ENA-78 Gene Polymorphisms and Protein Concentrations as Diagnostic and Prognostic Tools” (priority 2006, published 2008)", "system": "ENA-78", "assay": "IL-1beta-stimulated ENA-78 production from HUVECs, cytometric immunofluorescence", "type": "cell-based, human", "conditions": "IL-1beta and AT 10 uM; mevalonate 250 μM, FPP 5 μM, GGPP 5 μM, FIG. 16", "method": "Human umbilical vein endothelial cells (HUVECs) (Clonetics Cell Systems; Cambrex Bio Science Walkersville, Inc., Walkersville, USA) were cultured as previously described. Briefly, HUVECs between passes three and four were seeded at a density of 2.5×10^4 cells per cm^2 and cultured to 80% confluence with endothelial cell growth-supplemented medium (EGM-2-endothelial cell medium-2; Cambrex Bio Science Walkersville, Inc.). Once confluent, media was changed to serum free endothelial basal media (EBM-2-endothelial cell medium-2; Cambrex Bio Science Walkersville, Inc.) for 24 hours prior to treatment, in which EBM-2 media supplemented to a 2% FBS concentration was used. Treatments consisted of atorvastatin calcium (AT; LKT Laboratories Inc., St. […] All were dissolved in molecular grade water. All final DMSO concentrations were less then 0.1%. […] In experiments investigating the impact of AT on IL-1beta-stimulated ENA-78 production, HUVECs were pre-treated with AT followed by IL-1beta stimulation two hours later. […] In a separate set of experiments, cells were cultured with IL-1beta and AT in the presence or absence of mevalonate, FPP, and GGPP to determine whether AT inhibition of ENA-78 production was dependent on HMG-CoA reductase inhibition and subsequent downstream pathways. Cell culture supernates for all experiments were stored at -20° C. until analysis, which was performed within seven days. ENA-78 concentrations were measured and normalized to total protein content in cell culture supernates using cytometric immunofluorescence as previously described. Ribonucleic acid (RNA) was isolated using a commercial kit (RNeasy mini kit, Qiagen Inc., Valencia, USA). Complementary deoxyribonucleic acid (cDNA) conversion was performed by high capacity cDNA reverse transcription (Applied Biosystems, Foster City, USA) per protocol using roughly 2 μg of total RNA. RNA quality was assessed by absorbance (Nanodrop, Nanodrop Technologies, Wilmington, USA). Real-time reverse-transcription PCR (RT-PCR) was done using primer and probe sets for CXCL5 normalized to a housekeeping gene, glyceraldehyde-3-phosphate dehydrogenase (GAPDH; Taqman Gene Expression Assays, Applied Biosystems Inc.). […] PCR for both CXCL5 and GAPDH was performed at the same time using the following conditions: 95° C. for 2 minutes; 35 cycles of 95° C. for 30 seconds, 59° C. for 30 seconds, and 72° C. for 30 seconds; followed by 7 minutes of elongation at 72° C. Statistical differences in normalized protein concentrations and gene expression levels were determined by one way ANOVA and post-hoc Tukey analysis. […] An independent t-test was used to compare treatment differences at the same time points in the dose range analysis. […] Statistical analyses were performed with SPSS software, version 11.5 (SPSS Inc., Chicago, USA)."}
{"substance": "farnesyl pyrophosphate [FPP]", "values": [{"measurement": "effect of co-treatment on the effect of AT on IL-1beta-stimulated ENA-78 production", "value": "partially reversed"}]}
